The experiment relates to Wheat seeds. Kind of experiment: Germination test on wheat seeds with pesticide (tebuconazol) treatment. In kind it is in vivo. As to conditions: Guar 1/seed 0.2%, tebuconazol/seed 0.1%, 25 ml water each 2 days, 25° C. From the text: Germination rate means the number of plant emerging out of soil in comparison with the number of all introduced in the soil. Height is the medium height of all plants in a set. Spraying an aqueous solution comprising 0.4 wt % of Guar 1 and […] additives on the surface of Wheat seeds, to obtain a weight ratio Guar 1/seed of 0.2% and tebuconazol/seed of 0.1%. 900 g of soil in each pot are used; this soil coming from […] province and belongs to […] soil. The germination test is carried out under watering conditions of 25 ml water each 2 days, with a temperature is 25° C.

Each structure is given as a SMILES string.

Take `CC(C)(C)C(O)(CCc1ccc(Cl)cc1)Cn1cncn1` (centres unmarked) [tebucanozol, tebuconazol]: the “Germination rate (36 days)” value is 47% and the “Height (36 days)” value is recorded as 4.6 cm.
